# Results: ChEMBL document CHEMBL4184336, “Structure-Guided Modification of Heterocyclic Antagonists of the P2Y14 Receptor” (J Med Chem, 2018)
# Columns and labels:
# [1] = target: T1, P2Y purinoceptor 14 (Homo sapiens, UniProt Q15391)
# T1 sequence (Q15391 whole entry): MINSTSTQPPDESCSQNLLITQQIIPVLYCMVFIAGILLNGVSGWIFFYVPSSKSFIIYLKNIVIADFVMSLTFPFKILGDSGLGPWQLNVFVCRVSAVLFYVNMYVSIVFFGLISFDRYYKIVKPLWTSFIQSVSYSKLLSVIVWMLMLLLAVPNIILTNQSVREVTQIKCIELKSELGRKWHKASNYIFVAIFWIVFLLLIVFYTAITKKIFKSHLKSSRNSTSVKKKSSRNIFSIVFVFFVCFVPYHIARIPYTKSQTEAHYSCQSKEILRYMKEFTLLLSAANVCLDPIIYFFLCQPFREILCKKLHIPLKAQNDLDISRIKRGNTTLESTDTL
# Description: Displacement of MRS4174 from human P2Y14R expressed in CHO cells preincubated for 30 mins followed by MRS4174 addition measured after 30 mins by flow cytometric method
# [2] = target: Sodium-dependent noradrenaline transporter (Homo sapiens, UniProt P23975); assay: Displacement of [3H]-Nisoxetine from human NET expressed in HEK293 cell membranes after 90 mins by scintillation counting method
# Chain of Sodium-dependent noradrenaline transporter (P23975 whole entry): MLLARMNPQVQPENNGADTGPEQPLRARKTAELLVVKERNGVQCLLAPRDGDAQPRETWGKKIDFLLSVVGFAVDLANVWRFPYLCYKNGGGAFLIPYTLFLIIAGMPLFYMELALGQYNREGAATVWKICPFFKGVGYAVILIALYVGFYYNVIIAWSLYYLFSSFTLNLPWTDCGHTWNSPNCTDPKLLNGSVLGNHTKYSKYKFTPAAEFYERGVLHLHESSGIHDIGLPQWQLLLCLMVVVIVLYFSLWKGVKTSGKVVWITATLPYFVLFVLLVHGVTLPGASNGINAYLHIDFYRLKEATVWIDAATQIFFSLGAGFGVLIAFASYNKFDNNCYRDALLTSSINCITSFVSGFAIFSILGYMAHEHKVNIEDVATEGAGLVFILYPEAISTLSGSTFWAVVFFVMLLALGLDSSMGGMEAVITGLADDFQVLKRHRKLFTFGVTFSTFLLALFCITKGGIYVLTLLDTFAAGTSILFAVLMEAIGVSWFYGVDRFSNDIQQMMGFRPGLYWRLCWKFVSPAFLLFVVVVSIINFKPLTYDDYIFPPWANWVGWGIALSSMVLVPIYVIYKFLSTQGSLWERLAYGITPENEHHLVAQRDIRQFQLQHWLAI
# [3] = target: 5-hydroxytryptamine receptor 1A (Homo sapiens, UniProt P08908); assay: Displacement of [3H]-Way100635 from human 5-HT1A receptor expressed in CHO cell membranes after 90 mins by scintillation counting method
# [4] = target: 5-hydroxytryptamine receptor 2A (Homo sapiens, UniProt P28223); assay: Displacement of [3H]-Ketanserin from human 5-HT2A receptor expressed in HEK293T cell membranes after 90 mins by scintillation counting method
# [5] = target: Alpha-1A adrenergic receptor (Homo sapiens, UniProt P35348); assay: Displacement of [3H]-Prazosin from human adrenergic alpha1A receptor after 90 mins by scintillation counting method
# Chain of Alpha-1A adrenergic receptor (P35348 whole entry): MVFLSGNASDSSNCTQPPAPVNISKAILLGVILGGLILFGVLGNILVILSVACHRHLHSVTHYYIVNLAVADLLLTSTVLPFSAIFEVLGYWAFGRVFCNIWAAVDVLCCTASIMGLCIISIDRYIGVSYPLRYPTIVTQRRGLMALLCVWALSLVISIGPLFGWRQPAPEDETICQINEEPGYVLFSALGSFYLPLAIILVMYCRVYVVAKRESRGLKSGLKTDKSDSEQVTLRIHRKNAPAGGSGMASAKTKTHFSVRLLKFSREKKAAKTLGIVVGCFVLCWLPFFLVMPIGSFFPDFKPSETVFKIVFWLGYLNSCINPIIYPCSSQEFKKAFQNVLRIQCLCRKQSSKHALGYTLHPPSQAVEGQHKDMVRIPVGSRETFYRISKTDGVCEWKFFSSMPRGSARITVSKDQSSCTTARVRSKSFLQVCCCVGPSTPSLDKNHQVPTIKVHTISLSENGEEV
# [6] = target: Alpha-1B adrenergic receptor (Homo sapiens, UniProt P35368); assay: Displacement of [3H]-Prazosin from human adrenergic alpha1B receptor after 90 mins by scintillation counting method
# Chain of Alpha-1B adrenergic receptor (P35368 whole entry): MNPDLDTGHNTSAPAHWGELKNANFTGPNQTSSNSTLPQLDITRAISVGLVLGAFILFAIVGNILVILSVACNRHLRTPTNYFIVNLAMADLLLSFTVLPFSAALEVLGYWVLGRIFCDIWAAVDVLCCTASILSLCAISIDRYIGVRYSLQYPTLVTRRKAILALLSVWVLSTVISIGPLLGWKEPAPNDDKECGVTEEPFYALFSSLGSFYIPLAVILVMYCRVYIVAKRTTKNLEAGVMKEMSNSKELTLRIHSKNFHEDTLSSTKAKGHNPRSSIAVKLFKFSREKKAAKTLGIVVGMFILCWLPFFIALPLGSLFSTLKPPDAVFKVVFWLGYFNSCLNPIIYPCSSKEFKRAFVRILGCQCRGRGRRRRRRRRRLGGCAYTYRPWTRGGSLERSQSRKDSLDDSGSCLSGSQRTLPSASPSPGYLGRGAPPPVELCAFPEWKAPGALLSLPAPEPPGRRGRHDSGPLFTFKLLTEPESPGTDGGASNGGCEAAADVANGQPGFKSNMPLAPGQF
# [7] = target: Alpha-1D adrenergic receptor (Homo sapiens, UniProt P25100); assay: Displacement of [3H]-Prazosin from human adrenergic alpha1D receptor after 90 mins by scintillation counting method
# [8] = target: Alpha-2A adrenergic receptor (Homo sapiens, UniProt P08913); assay: Displacement of [3H]Rauwolscine from human adrenergic alpha2A receptor expressed in MDCK cell membranes after 90 mins by scintillation counting method
# Chain of Alpha-2A adrenergic receptor (P08913 whole entry): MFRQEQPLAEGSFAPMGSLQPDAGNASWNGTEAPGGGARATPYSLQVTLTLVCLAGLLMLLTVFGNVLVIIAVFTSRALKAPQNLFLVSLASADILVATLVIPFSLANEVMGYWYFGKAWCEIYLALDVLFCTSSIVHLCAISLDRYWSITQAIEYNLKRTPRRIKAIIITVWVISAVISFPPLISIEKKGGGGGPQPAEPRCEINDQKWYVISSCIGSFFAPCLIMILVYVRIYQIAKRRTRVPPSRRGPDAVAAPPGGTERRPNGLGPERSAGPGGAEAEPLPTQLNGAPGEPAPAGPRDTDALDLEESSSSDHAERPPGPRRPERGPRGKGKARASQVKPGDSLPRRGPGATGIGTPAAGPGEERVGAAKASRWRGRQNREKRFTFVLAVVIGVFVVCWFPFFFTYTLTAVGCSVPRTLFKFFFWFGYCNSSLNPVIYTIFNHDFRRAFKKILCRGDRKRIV
# [9] = target: Alpha-2B adrenergic receptor (Homo sapiens, UniProt P18089); assay: Displacement of [3H]Rauwolscine from human adrenergic alpha2B receptor expressed in HEK293T cell membranes after 90 mins by scintillation counting method
# Chain of Alpha-2B adrenergic receptor (P18089 whole entry): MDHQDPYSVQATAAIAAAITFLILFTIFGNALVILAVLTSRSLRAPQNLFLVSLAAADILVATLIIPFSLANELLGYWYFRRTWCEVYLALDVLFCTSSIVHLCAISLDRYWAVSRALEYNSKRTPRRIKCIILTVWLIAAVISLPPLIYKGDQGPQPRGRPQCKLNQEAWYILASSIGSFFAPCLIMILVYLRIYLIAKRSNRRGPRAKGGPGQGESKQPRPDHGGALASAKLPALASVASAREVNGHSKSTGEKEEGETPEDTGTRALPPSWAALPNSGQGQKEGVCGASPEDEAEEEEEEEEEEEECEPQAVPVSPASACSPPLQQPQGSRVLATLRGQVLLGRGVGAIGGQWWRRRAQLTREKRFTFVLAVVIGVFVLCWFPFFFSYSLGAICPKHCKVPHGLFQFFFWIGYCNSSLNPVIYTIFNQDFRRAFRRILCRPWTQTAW
# [10] = target: D(1A) dopamine receptor (Homo sapiens, UniProt P21728); assay: Displacement of [3H]SCH23390 from human dopamine D1 receptor expressed in HEK293T cell membranes after 90 mins by scintillation counting method
# [11] = target: D(2) dopamine receptor (Homo sapiens, UniProt P14416); assay: Displacement of [3H]N-methylspiperone from human dopamine D2 receptor expressed in HEK293T cell membranes after 90 mins by scintillation counting method
# [12] = target: D(3) dopamine receptor (Homo sapiens, UniProt P35462); assay: Displacement of [3H]N-methylspiperone from human dopamine D3 receptor expressed in HEK293T cell membranes after 90 mins by scintillation counting method
# Chain of D(3) dopamine receptor (P35462 whole entry): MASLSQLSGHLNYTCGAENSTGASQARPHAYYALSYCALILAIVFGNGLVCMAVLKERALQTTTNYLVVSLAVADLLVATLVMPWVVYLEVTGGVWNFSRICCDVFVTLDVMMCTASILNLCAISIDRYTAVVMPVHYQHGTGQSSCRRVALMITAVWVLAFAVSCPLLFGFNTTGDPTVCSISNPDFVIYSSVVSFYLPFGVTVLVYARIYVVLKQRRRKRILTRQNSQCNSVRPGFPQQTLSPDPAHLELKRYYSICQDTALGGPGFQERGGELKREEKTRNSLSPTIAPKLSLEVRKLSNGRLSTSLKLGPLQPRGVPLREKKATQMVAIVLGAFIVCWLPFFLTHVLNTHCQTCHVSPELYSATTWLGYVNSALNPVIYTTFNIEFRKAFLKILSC
# [13] = target: D(1B) dopamine receptor (Homo sapiens, UniProt P21918); assay: Displacement of [3H]SCH23390 from human dopamine D5 receptor expressed in HEK293T cell membranes after 90 mins by scintillation counting method
# [14] = target: Histamine H2 receptor (Homo sapiens, UniProt P25021); assay: Displacement of [125I]-Iodoaminopotentidine from human histamine H2 receptor expressed in HEK293T cell membranes after 90 mins by scintillation counting method
# Chain of Histamine H2 receptor (P25021 whole entry): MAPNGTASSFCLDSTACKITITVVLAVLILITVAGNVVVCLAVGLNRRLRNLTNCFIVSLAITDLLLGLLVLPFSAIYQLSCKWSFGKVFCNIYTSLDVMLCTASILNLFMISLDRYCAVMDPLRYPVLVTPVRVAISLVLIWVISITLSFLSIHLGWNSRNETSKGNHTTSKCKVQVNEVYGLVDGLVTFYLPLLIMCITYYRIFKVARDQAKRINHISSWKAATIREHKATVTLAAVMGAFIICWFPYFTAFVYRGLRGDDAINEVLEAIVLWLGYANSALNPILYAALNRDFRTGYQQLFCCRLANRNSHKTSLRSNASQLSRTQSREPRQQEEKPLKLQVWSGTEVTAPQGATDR
# [15] = target: Sigma intracellular receptor 2 (Homo sapiens, UniProt Q5BJF2); assay: Displacement of [3H]-DTG from human sigma2 receptor expressed in HEK293T cell membranes after 90 mins by scintillation counting method
# Chain of Sigma intracellular receptor 2 (Q5BJF2 whole entry): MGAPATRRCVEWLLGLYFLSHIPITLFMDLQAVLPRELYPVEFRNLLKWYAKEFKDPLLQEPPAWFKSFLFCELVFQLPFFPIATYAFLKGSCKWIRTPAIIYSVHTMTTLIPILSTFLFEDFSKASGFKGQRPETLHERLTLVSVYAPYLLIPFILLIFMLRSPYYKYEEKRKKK
# [16] = target: Sodium-dependent dopamine transporter (Homo sapiens, UniProt Q01959); assay: Displacement of [3H]-WIN35428 from human DAT after 90 mins by scintillation counting method
# [17] = target: 5-hydroxytryptamine receptor 6 (Homo sapiens, UniProt P50406); assay: Displacement of [3H]-LSD from human 5-HT6 receptor expressed in HEK293 cell membranes after 90 mins by scintillation counting method
# Chain of 5-hydroxytryptamine receptor 6 (P50406 whole entry): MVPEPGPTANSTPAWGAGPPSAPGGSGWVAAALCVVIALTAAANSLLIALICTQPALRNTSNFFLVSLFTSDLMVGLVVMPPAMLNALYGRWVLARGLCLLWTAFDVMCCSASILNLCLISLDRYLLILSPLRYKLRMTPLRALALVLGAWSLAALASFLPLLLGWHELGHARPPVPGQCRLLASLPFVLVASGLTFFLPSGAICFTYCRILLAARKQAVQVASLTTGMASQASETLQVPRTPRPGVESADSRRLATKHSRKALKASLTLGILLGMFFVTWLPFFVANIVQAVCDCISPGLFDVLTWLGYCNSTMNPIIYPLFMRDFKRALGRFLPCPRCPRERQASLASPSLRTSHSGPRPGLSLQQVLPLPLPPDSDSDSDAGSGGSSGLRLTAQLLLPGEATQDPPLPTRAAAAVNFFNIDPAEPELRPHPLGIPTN
# [18] = target: Beta-3 adrenergic receptor (Homo sapiens, UniProt P13945); assay: Displacement of [3H]-CGP12177 from human adrenergic beta-3 receptor expressed in HEK Flp-In cell membranes after 90 mins by scintillation counting method
# Chain of Beta-3 adrenergic receptor (P13945 whole entry): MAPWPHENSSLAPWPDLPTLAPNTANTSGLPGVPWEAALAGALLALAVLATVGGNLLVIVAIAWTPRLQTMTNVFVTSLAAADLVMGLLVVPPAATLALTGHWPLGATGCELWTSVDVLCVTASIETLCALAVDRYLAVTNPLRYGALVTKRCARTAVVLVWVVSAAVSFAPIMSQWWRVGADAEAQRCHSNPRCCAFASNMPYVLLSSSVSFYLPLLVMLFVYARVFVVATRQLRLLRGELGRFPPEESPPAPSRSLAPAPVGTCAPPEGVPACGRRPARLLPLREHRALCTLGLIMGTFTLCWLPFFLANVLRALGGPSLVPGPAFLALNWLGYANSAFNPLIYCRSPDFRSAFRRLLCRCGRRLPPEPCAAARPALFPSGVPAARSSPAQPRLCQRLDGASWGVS
# [19] = target: Kappa-type opioid receptor (Homo sapiens, UniProt P41145); assay: Displacement of [3H]-U69593 from human KOR expressed in HEK293 cell membranes after 90 mins by scintillation counting method
# Chain of Kappa-type opioid receptor (P41145 whole entry): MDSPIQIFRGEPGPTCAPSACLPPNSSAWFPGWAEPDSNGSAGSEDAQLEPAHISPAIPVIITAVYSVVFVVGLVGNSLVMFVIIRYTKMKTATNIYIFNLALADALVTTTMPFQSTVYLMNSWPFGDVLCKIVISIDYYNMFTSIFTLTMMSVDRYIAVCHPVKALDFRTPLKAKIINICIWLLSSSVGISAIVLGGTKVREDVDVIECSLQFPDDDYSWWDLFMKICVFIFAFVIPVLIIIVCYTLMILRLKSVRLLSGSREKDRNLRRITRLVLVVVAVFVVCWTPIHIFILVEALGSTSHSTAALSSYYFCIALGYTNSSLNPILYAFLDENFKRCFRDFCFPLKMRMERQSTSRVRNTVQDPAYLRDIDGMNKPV
# [20] = target: Translocator protein (Rattus norvegicus, UniProt P16257); assay: Displacement of [3H]-PK11195 from rat brain TSPO after 90 mins by scintillation counting method
# Chain of Translocator protein (P16257 whole entry, looked up): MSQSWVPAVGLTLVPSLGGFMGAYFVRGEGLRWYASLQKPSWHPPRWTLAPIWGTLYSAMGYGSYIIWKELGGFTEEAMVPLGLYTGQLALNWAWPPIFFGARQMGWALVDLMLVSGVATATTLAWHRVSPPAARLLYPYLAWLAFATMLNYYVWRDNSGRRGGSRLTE
# [21] = target: Sodium-dependent serotonin transporter (Homo sapiens, UniProt P31645); assay: Displacement of [3H]-Citalopram from human SERT expressed in HEK293 cell membranes after 90 mins by scintillation counting method
smiles,measurement,setting,value
NCCCNC(=O)c1csc(-c2cc(C(=O)O)cc(-n3cc(-c4ccc(C(F)(F)F)cc4)nn3)c2)c1,IC50,[1],0.735 µM
CC(C)(C)OC(=O)N1CCN(Cc2ccc(-c3cc(C(=O)O)cc(-n4cc(-c5ccc(C(F)(F)F)cc5)nn4)c3)s2)CC1,IC50,[1],67.2 µM
CC(C)(C)OC(=O)NCCCNC(=O)c1ccc(-c2cc(C(=O)O)cc(-n3cc(-c4ccc(C(F)(F)F)cc4)nn3)c2)s1,IC50,[1],2.28 µM
NCCCNS(=O)(=O)c1ccc(-c2cc(C(=O)O)cc(-n3cc(-c4ccc(C(F)(F)F)cc4)nn3)c2)s1,IC50,[1],0.756 µM
NCCCNC(=O)c1ccc(-c2cc(C(=O)O)cc(-n3cc(-c4ccc(C(F)(F)F)cc4)nn3)c2)o1,IC50,[1],10.9 µM
CC(C)(C)OC(=O)NCCCCNS(=O)(=O)c1ccc(-c2cc(C(=O)O)cc(-n3cc(-c4ccc(C(F)(F)F)cc4)nn3)c2)s1,IC50,[1],13.6 µM
FC(F)(F)c1ccc(-c2cn(-c3cc(-c4ccc(C5CCNCC5)cc4)cc(-c4nnn[nH]4)c3)nn2)cc1,IC50,[1],0.958 µM
NCCCCCCn1cc(CCCCN2CCC(c3ccc(-c4cc(C(=O)O)cc5cc(-c6ccc(C(F)(F)F)cc6)ccc45)cc3)CC2)nn1,Ki,[2],1.87 µM
same,Ki,[3],5.65 µM
same,Ki,[4],8.4 µM
same,Ki,[5],1.77 µM
same,Ki,[6],1.11 µM
same,Ki,[7],1.27 µM
same,Ki,[8],0.028 µM
same,Ki,[9],0.984 µM
same,Ki,[10],7.6 µM
same,Ki,[11],8.21 µM
same,Ki,[12],1.6 µM
same,Ki,[13],1.07 µM
same,Ki,[14],0.365 µM
same,Ki,[15],1.2 µM
same,Ki,[16],1.07 µM
same,IC50,[1],0.0254 µM
CC(C)(C)OC(=O)N1CCN(S(=O)(=O)c2ccc(-c3cc(C(=O)O)cc(-n4cc(-c5ccc(C(F)(F)F)cc5)nn4)c3)cc2)CC1,IC50,[1],> 50 µM
O=C(O)c1cc(-c2ccc(S(=O)(=O)N3CCNCC3)cc2)cc(-n2cc(-c3ccc(C(F)(F)F)cc3)nn2)c1,IC50,[1],1.64 µM
NC(=O)c1ccc(-c2cc(-c3nnn[nH]3)cc(-n3cc(-c4ccc(C(F)(F)F)cc4)nn3)c2)cc1,IC50,[1],2.43 µM
NC(=O)c1cnc(-c2cc(C(=O)O)cc(-n3cc(-c4ccc(C(F)(F)F)cc4)nn3)c2)cn1,IC50,[1],0.566 µM
O=C(O)c1cc(-c2ccc(S(=O)(=O)N3CCNCC3)s2)cc(-n2cc(-c3ccc(C(F)(F)F)cc3)nn2)c1,IC50,[1],1.51 µM
CC(C)(C)NC(=O)c1ccc(-c2cc(C(=O)O)cc(-n3cc(-c4ccc(C(F)(F)F)cc4)nn3)c2)cc1,IC50,[1],7.53 µM
CC(C)(C)OC(=O)NCCNS(=O)(=O)c1ccc(-c2cc(C(=O)O)cc(-n3cc(-c4ccc(C(F)(F)F)cc4)nn3)c2)s1,IC50,[1],5.92 µM
CC(C)(C)OC(=O)N1CCN(S(=O)(=O)c2ccc(-c3cc(C(=O)O)cc(-n4cc(-c5ccc(C(F)(F)F)cc5)nn4)c3)s2)CC1,IC50,[1],54.7 µM
CC(C)(C)OC(=O)NCCCCCCn1cc(CCCCN2CCC(c3ccc(-c4cc(C(=O)O)cc5cc(-c6ccc(C(F)(F)F)cc6)ccc45)cc3)CC2)nn1,Ki,[8],5.28 µM
same,Ki,[14],0.829 µM
same,Ki,[17],7.9 µM
same,Ki,[18],2.36 µM
same,Ki,[19],4.06 µM
same,Ki,[20],5.6 µM
same,Ki,[21],2.08 µM
same,IC50,[1],0.133 µM
CNC(=O)c1ccc(-c2cc(C(=O)O)cc(-n3cc(-c4ccc(C(F)(F)F)cc4)nn3)c2)cc1,IC50,[1],0.563 µM
NCCCNC(=O)c1cc(-c2cc(C(=O)O)cc(-n3cc(-c4ccc(C(F)(F)F)cc4)nn3)c2)cs1,IC50,[1],1.75 µM
CC(=O)NCCCCCCn1cc(CCCCN2CCC(c3ccc(-c4cc(C(=O)O)cc5cc(-c6ccc(C(F)(F)F)cc6)ccc45)cc3)CC2)nn1,IC50,[1],0.0835 µM
O=C(O)c1cc(O)c2ccc(-c3ccc(C(F)(F)F)cc3)cc2c1,Ki,[2],5.8 µM
